# Test results taken from ChEMBL document CHEMBL3885881, “DrugMatrix”.
# Species: Rattus norvegicus
# Assay: DrugMatrix - Regimen: Daily Repeat
# Format: toxicity, organism-based, Sprague-Dawley
# Set-up: regimen Daily Repeat, gender Male, age 6-8 weeks
# Conditions: in vivo, po, route oral GAVAGE, vehicle 100 % WATER; for ABSOLUTE BASOPHIL / ABSOLUTE EOSINOPHIL / ABSOLUTE LYMPHOCYTE / ABSOLUTE MONOCYTE / ABSOLUTE SEGMENTED NEUTROPHIL / BASOPHIL / EOSINOPHIL / ERYTHROCYTE COUNT / HEMATOCRIT / HEMOGLOBIN / LEUKOCYTE COUNT / LYMPHOCYTE / MEAN CORPUSCULAR HEMOGLOBIN / MEAN CORPUSCULAR HEMOGLOBIN CONCENTRATION / MEAN CORPUSCULAR VOLUME / MONOCYTE / NEUTROPHIL / NUCLEATED RED BLOOD CELLS / PLATELET COUNT: tissue Blood; for ALANINE AMINOTRANSFERASE / ALBUMIN / ALKALINE PHOSPHATASE / ASPARTATE AMINOTRANSFERASE / BLOOD UREA NITROGEN / CARBON DIOXIDE / CHLORIDE / CHOLESTEROL / CREATINE PHOSPHOKINASE / CREATININE / GLUCOSE / LACTATE DEHYDROGENASE / LIPASE / PHOSPHORUS / POTASSIUM / SODIUM / TOTAL BILIRUBIN / TOTAL PROTEIN / URIC ACID: tissue Plasma
# [1] = 4.5 mg/kg, 120 h, dose level Low, time 5 day
# [2] = 45 mg/kg, 72 h, dose level High, time 3 day
# [3] = 45 mg/kg, 120 h, dose level High, time 5 day
compound,measurement,setting,value
NN [HYDRAZINE],ABSOLUTE BASOPHIL,[1],0 CELLS/uL
same,ABSOLUTE EOSINOPHIL,[1],61.33 CELLS/uL
same,ABSOLUTE LYMPHOCYTE,[1],9152.67 CELLS/uL
same,ABSOLUTE MONOCYTE,[1],216 CELLS/uL
same,ABSOLUTE SEGMENTED NEUTROPHIL,[1],1236.67 CELLS/uL
same,BASOPHIL,[1],0%
same,EOSINOPHIL,[1],0.67%
same,ERYTHROCYTE COUNT,[1],5.22 x10E6/uL
same,HEMATOCRIT,[1],32.97%
same,HEMOGLOBIN,[1],13.03 G/DL
same,LEUKOCYTE COUNT,[1],10.67 x10E3/uL
same,LYMPHOCYTE,[1],85.33%
same,MEAN CORPUSCULAR HEMOGLOBIN,[1],25 pg
same,MEAN CORPUSCULAR HEMOGLOBIN CONCENTRATION,[1],39.57 G/DL
same,MEAN CORPUSCULAR VOLUME,[1],63.23 fL
same,MONOCYTE,[1],2%
same,NEUTROPHIL,[1],12%
same,NUCLEATED RED BLOOD CELLS,[1],0 /100WBC
same,PLATELET COUNT,[1],1367.67 x10E3/uL
same,ALANINE AMINOTRANSFERASE,[1],34.33 u/L
same,ALBUMIN,[1],4.27 G/DL
same,ALKALINE PHOSPHATASE,[1],357 u/L
same,ASPARTATE AMINOTRANSFERASE,[1],88.33 u/L
same,BLOOD UREA NITROGEN,[1],18.33 mg/dL
same,CARBON DIOXIDE,[1],28 mmol/L
same,CHLORIDE,[1],100 MEQ/L
same,CHOLESTEROL,[1],80 mg/dL
same,CREATINE PHOSPHOKINASE,[1],469 u/L
same,CREATININE,[1],0.17 mg/dL
same,GLUCOSE,[1],135.67 mg/dL
same,LACTATE DEHYDROGENASE,[1],538.33 u/L
same,LIPASE,[1],11 u/L
same,PHOSPHORUS,[1],11.77 mg/dL
same,POTASSIUM,[1],5.73 MEQ/L
same,SODIUM,[1],142.13 MEQ/L
same,TOTAL BILIRUBIN,[1],0.13 mg/dL
same,TOTAL PROTEIN,[1],5.87 G/DL
same,URIC ACID,[1],1.37 mg/dL
same,ABSOLUTE BASOPHIL,[2],0 CELLS/uL
same,ABSOLUTE EOSINOPHIL,[2],101.33 CELLS/uL
same,ABSOLUTE LYMPHOCYTE,[2],9888 CELLS/uL
same,ABSOLUTE MONOCYTE,[2],143.33 CELLS/uL
same,ABSOLUTE SEGMENTED NEUTROPHIL,[2],634 CELLS/uL
same,BASOPHIL,[2],0%
same,EOSINOPHIL,[2],1%
same,ERYTHROCYTE COUNT,[2],5.85 x10E6/uL
same,HEMATOCRIT,[2],35.23%
same,HEMOGLOBIN,[2],13.87 G/DL
same,LEUKOCYTE COUNT,[2],10.77 x10E3/uL
same,LYMPHOCYTE,[2],91.67%
same,MEAN CORPUSCULAR HEMOGLOBIN,[2],23.77 pg
same,MEAN CORPUSCULAR HEMOGLOBIN CONCENTRATION,[2],39.43 G/DL
same,MEAN CORPUSCULAR VOLUME,[2],60.27 fL
same,MONOCYTE,[2],1.33%
same,NEUTROPHIL,[2],6%
same,NUCLEATED RED BLOOD CELLS,[2],0.33 /100WBC
same,PLATELET COUNT,[2],1202 x10E3/uL
same,ALANINE AMINOTRANSFERASE,[2],14 u/L
same,ALBUMIN,[2],4.07 G/DL
same,ALKALINE PHOSPHATASE,[2],403.33 u/L
same,ASPARTATE AMINOTRANSFERASE,[2],77.67 u/L
same,BLOOD UREA NITROGEN,[2],17.67 mg/dL
same,CARBON DIOXIDE,[2],31.33 mmol/L
same,CHLORIDE,[2],98.33 MEQ/L
same,CHOLESTEROL,[2],44 mg/dL
same,CREATINE PHOSPHOKINASE,[2],676.33 u/L
same,CREATININE,[2],0.11 mg/dL
same,GLUCOSE,[2],133.33 mg/dL
same,LACTATE DEHYDROGENASE,[2],533 u/L
same,LIPASE,[2],11 u/L
same,PHOSPHORUS,[2],11.23 mg/dL
same,POTASSIUM,[2],6.63 MEQ/L
same,SODIUM,[2],138.67 MEQ/L
same,TOTAL BILIRUBIN,[2],0.13 mg/dL
same,TOTAL PROTEIN,[2],5.5 G/DL
same,URIC ACID,[2],1.6 mg/dL
same,ABSOLUTE BASOPHIL,[3],0 CELLS/uL
same,ABSOLUTE EOSINOPHIL,[3],63.33 CELLS/uL
same,ABSOLUTE LYMPHOCYTE,[3],8413.33 CELLS/uL
same,ABSOLUTE MONOCYTE,[3],93 CELLS/uL
same,ABSOLUTE SEGMENTED NEUTROPHIL,[3],730.33 CELLS/uL
same,BASOPHIL,[3],0%
same,EOSINOPHIL,[3],0.67%
same,ERYTHROCYTE COUNT,[3],5.35 x10E6/uL
same,HEMATOCRIT,[3],31.4%
same,HEMOGLOBIN,[3],12.23 G/DL
same,LEUKOCYTE COUNT,[3],9.3 x10E3/uL
same,LYMPHOCYTE,[3],90.67%
same,MEAN CORPUSCULAR HEMOGLOBIN,[3],22.9 pg
same,MEAN CORPUSCULAR HEMOGLOBIN CONCENTRATION,[3],38.97 G/DL
same,MEAN CORPUSCULAR VOLUME,[3],58.77 fL
same,MONOCYTE,[3],1%
same,NEUTROPHIL,[3],7.67%
same,NUCLEATED RED BLOOD CELLS,[3],0 /100WBC
same,PLATELET COUNT,[3],1463.33 x10E3/uL
same,ALANINE AMINOTRANSFERASE,[3],14.67 u/L
same,ALBUMIN,[3],4 G/DL
same,ALKALINE PHOSPHATASE,[3],346 u/L
same,ASPARTATE AMINOTRANSFERASE,[3],75.67 u/L
same,BLOOD UREA NITROGEN,[3],18.67 mg/dL
same,CARBON DIOXIDE,[3],25.33 mmol/L
same,CHLORIDE,[3],99 MEQ/L
same,CHOLESTEROL,[3],50.67 mg/dL
same,CREATINE PHOSPHOKINASE,[3],391.33 u/L
same,CREATININE,[3],0.11 mg/dL
same,GLUCOSE,[3],153.33 mg/dL
same,LACTATE DEHYDROGENASE,[3],326 u/L
same,LIPASE,[3],11.33 u/L
same,PHOSPHORUS,[3],11.23 mg/dL
same,POTASSIUM,[3],6.42 MEQ/L
same,SODIUM,[3],139.93 MEQ/L
same,TOTAL BILIRUBIN,[3],0.2 mg/dL
same,TOTAL PROTEIN,[3],5.37 G/DL
same,URIC ACID,[3],1.4 mg/dL
